# According to EPA's aquatic toxicity sets:
# Test system: Daphnia magna
# Test: 48 h LC50 (-log10 mol/L); higher = more toxic
row,SMILES,48 h LC50 (-log10 mol/L)
1,ClC1=C(Cl)[C@]2(Cl)[C@@H]3[C@@H](Cl)[C@H]4O[C@H]4[C@@H]3[C@@]1(Cl)C2(Cl)Cl,6.21
2,Clc1ccc(Cl)c(-c2cc(Cl)c(Cl)cc2Cl)c1,7.51
3,COc1c(O)cc(Cl)c(Cl)c1Cl,5.53
4,CSc1nc(N)nc(NC(C)(C)C)n1,4.29
5,CN1CSC(=S)N(C)C1,5.47
6,CC(C)CCCCCCCOP(=O)(Oc1ccccc1)Oc1ccccc1,7.1
7,CC(C)NCC(O)COc1cccc2[nH]c3ccccc3c12 (stereo not drawn),4.3
8,CC(C)OC(=O)Nc1cccc(Cl)c1,4.76
9,O=[N+]([O-])c1ccc(Cl)cc1,4.31
10,CCOP(=S)(OCC)OP(=S)(OCC)OCC,9.15
11,CC(C)(C)NC(=O)[C@H]1CC[C@H]2[C@@H]3CC[C@H]4NC(=O)C=C[C@]4(C)[C@H]3CC[C@]12C,4.25
12,O=c1ccc2ccccc2o1,4.03
13,COC1=CC(=O)C[C@@H](C)[C@]12Oc1c(Cl)c(OC)cc(OC)c1C2=O,2.51
14,NC(N)=Nc1nc(CSCC/C(N)=N/S(N)(=O)=O)cs1,2.93
15,ClCC1CO1 (stereo not drawn),3.59
16,Cc1cc(C)cc(OCC2CNC(=O)O2)c1 (stereo not drawn),3.47
17,CCOc1cc(NC(C)=O)ccc1C(=O)OC,3.07
18,O=[N+]([O-])c1ccc(Cl)c([N+](=O)[O-])c1,5.4
19,C[C@]12CC[C@H]3[C@@H](CCC4=CC(=O)CC[C@@]43C)[C@@H]1CC[C@@H]2O,5.17
20,CCCCN(CC)C(=O)SCCC,4.47
21,COc1ccccc1O,3.68
22,COC(=O)C1=C(C)NC(C)=C(C(=O)OCC(C)C)C1c1ccccc1[N+](=O)[O-] (stereo not drawn),4.07
23,N#CSCSC#N,6.25

row,SMILES,48 h LC50 (-log10 mol/L)
1,C1=CCCCC1,3.94
2,C=C[C@]1(C)C[C@@H](OC(=O)CSC2C[C@H]3CC[C@@H](C2)N3C)[C@]2(C)[C@H](C)CC[C@]3(CCC(=O)[C@H]32)[C@@H](C)[C@@H]1O (stereo partly drawn),4.11
3,c1ccc2c(c1)ccc1oc3ccccc3c12,4.74
4,O=C(O)c1cc(Oc2ccc(C(F)(F)F)cc2Cl)ccc1[N+](=O)[O-],4.26
5,COc1cc(Cl)c(Cl)c(Cl)c1O,5.37
6,Clc1ccc(-c2ccc(Cl)c(Cl)c2)cc1Cl,8.16
7,CC(C)C1OCC=CCO1,2.27
8,COCC(C)O (stereo not drawn),0.59
9,CCC(Cl)Cl,3.63
10,O=S1OC[C@@H]2[C@H](CO1)[C@]1(Cl)C(Cl)=C(Cl)[C@@]2(Cl)C1(Cl)Cl (stereo partly drawn),6.08
11,COc1ccc2nc(S(=O)Cc3ncc(C)c(OC)c3C)[nH]c2c1 (stereo not drawn),3.59
12,Fc1ccc([C@@H]2CCNC[C@H]2COc2ccc3c(c2)OCO3)cc1,5.75
13,CN(C)c1nc(=O)n(C2CCCCC2)c(=O)n1C,3.22
14,O=NN(c1ccccc1)c1ccccc1,4.4
15,CN1CCCC1=O,4.91
16,CN(C)[C@@H]1C(=O)C(C(N)=O)=C(O)[C@@]2(O)C(=O)C3=C(O)c4c(O)cccc4[C@@](C)(O)[C@H]3C[C@@H]12,6.43
17,NC[C@@H]1O[C@H](O[C@H]2[C@@H](O)[C@H](O[C@@H]3[C@@H](O)[C@H](N)C[C@H](N)[C@H]3O[C@H]3O[C@H](CO)[C@@H](O)[C@H](O)[C@H]3N)O[C@@H]2CO)[C@H](N)[C@@H](O)[C@@H]1O,3.09
18,CC1(C)[C@@H]2CC[C@@]1(C)[C@H](OC(=O)CSC#N)C2,6.47
19,CCCCNC(=O)OCC#CI,6.85
20,CC(=O)OCC(CCn1cnc2cnc(N)nc21)COC(C)=O,2.59
21,CCOP(=O)(OCC)OC(=CCl)c1ccc(Cl)cc1Cl,6.56
22,Clc1cc(Cl)c(-c2ccccc2)cc1Cl,5.64
23,CC[C@H]1OC(=O)[C@H](C)[C@@H](O[C@H]2C[C@@](C)(OC)[C@@H](O)[C@H](C)O2)[C@H](C)[C@@H](O[C@@H]2O[C@H](C)C[C@H](N(C)C)[C@H]2O)[C@](C)(O)C[C@@H](C)C(=O)[C@H](C)[C@@H](O)[C@]1(C)O,3.28

row,SMILES,48 h LC50 (-log10 mol/L)
1,COC(=O)c1ccccc1C(=O)OC,3.77
2,CC(=O)CC(c1ccccc1)c1c(O)c2ccccc2oc1=O (stereo not drawn),2.96
3,CCNc1nc(NCC)nc(SC)n1,3.63
4,CCCC(=O)Nc1ccc(OCC(O)CNC(C)C)c(C(C)=O)c1 (stereo not drawn),3.82
5,CBr,4.63
6,CCOC(=O)c1ocnc1C,2.67
7,CC(C)=CC1C(C(=O)OCc2cccc(Oc3ccccc3)c2)C1(C)C (stereo not drawn),7.69
8,CCCCOCCOCCOCc1cc2c(cc1CCC)OCO2,5.29
9,CC[C@H]1OC(=O)[C@H](C)[C@@H](O[C@H]2C[C@@](C)(OC)[C@@H](O)[C@H](C)O2)[C@H](C)[C@@H](O[C@@H]2O[C@H](C)C[C@H](N(C)C)[C@H]2O)[C@](C)(O)C[C@@H](C)CN(C)[C@H](C)[C@@H](O)[C@]1(C)O,3.79
10,CCCN(CCC)C(=O)SCC,4.61
11,O=C(O)/C=C\C(=O)O,2.76
12,CN=C(NC#N)NCCSCc1nc[nH]c1C,2.53
13,COCC(C)OC(C)=O (stereo not drawn),2.51
14,CC(C)CCCCCCCCCCN(CCCCCCCCCCC(C)C)CCCCCCCCCCC(C)C,5.96
15,O[C@@H](CS)[C@@H](O)CS,3.76
16,O=S1(=O)C=Cc2ccccc21,4.07
17,Clc1cc(Cl)c(Cl)c(Cl)c1,4.87
18,Cc1cccc([N+](=O)[O-])c1C,4.56
19,CN(C)C(N)=S,3.39
20,O=C1CN(/N=C/c2ccc([N+](=O)[O-])o2)C(=O)N1,3.51
21,CO/N=C(/C(=O)OC)c1ccccc1CO/N=C(\C)c1cccc(C(F)(F)F)c1,5.74
22,O=C1CN=C(c2ccccc2Cl)c2cc([N+](=O)[O-])ccc2N1,4.02
